Among the data in patent publication US12319672B2, “Alpha-D-galactopyranoside derivatives” (Idorsia Pharmaceuticals Ltd, priority 2019, dated 2025) are IC50 values, retold here.

The structures appear in SMILES notation.

One assay has as its target human Gal-3 (hGal-3) (Homo sapiens (Human), UniProt P17931). The assay is described as follows: Competitive binding assay: binding of biotinylated hGal-3 to microplate-adsorbed asialofetuin (ASF). Particulars: Activity on hGal-3; mean values of several measurements. The essentials: (§1)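 For hGal-1, a variant with all six cysteines replaced by serines is preferred. Either galectin, biotinylated at 300-1000 ng/mL, competes with compound for microplate-bound ASF over 3 h at 4° C; peroxidase/ABTS detection gives IC50, averaged.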

For the next assay, the target named is human Gal-1 (hGal-1). The assay is described as follows: Competitive binding assay: binding of biotinylated hGal-1 to microplate-adsorbed asialofetuin (ASF). Particulars: Activities on hGal-1; mean values of several measurements. The procedure, abridged:
as §1

Sequence of human Gal-1 (hGal-1) (P09382 2-135 limits assumed): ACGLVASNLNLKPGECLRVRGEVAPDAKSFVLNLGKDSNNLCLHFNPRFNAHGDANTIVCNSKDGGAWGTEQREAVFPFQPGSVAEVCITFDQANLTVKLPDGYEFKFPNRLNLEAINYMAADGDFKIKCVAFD
Sequence of human Gal-3 (hGal-3) (P17931 whole entry): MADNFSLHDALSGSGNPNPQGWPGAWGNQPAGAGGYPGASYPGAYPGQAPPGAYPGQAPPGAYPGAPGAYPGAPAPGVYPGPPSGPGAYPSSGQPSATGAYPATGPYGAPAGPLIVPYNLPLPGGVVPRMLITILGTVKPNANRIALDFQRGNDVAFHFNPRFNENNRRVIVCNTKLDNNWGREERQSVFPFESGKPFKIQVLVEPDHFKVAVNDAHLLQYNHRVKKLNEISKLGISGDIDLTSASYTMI

By IC50 is commonly meant the midpoint of a concentration-inhibition curve. Lower therefore signals greater potency. As to `CO[C@@H]1[C@@H](n2cc(-c3cc(F)c(F)c(F)c3)nn2)[C@@H](O)[C@@H](CO)O[C@@H]1Cc1cc(C2CCN(C(=O)N(C)C)CC2)on1` [Example 3.69, 4-(3-(((2R,3R,4S,5R,6R)-5-hydroxy-6-(hydroxymethyl)-3-methoxy-4-(4-(3,4,5-trifluorophenyl)-1H-1,2,3-triazol-1-yl)tetrahydro-2H-pyran-2-yl)methyl)isoxazol-5-yl)-N,N-dimethylpiperidine-1-carboxamide], the IC50 at human Gal-3 (hGal-3) worked out at 170 nM; at human Gal-1 (hGal-1), 2470 nM.
On to `CNC(=O)CO[C@@H]1[C@@H](n2cc(-c3cc(F)c(F)c(F)c3)nn2)[C@@H](O)[C@@H](CO)O[C@@H]1CC1CC(C2CCN(C(=O)OC(C)(C)C)CC2)=NO1` (mixture of isomers) [Example 2.35, tert-butyl 4-((RS)-5-(((2R,3R,4S,5R,6R)-5-hydroxy-6-(hydroxymethyl)-3-(2-(methylamino)-2-oxoethoxy)-4-(4-(3,4,5-trifluorophenyl)-1H-1,2,3-triazol-1-yl)tetrahydro-2H-pyran-2-yl)methyl)-4,5-dihydroisoxazol-3-yl)piperidine-1-carboxylate], for which the IC50 on human Gal-3 (hGal-3) was 140 nM; on human Gal-1 (hGal-1), 2620 nM.
For `CO[C@@H]1[C@@H](n2cc(-c3cc(F)c(F)c(F)c3)nn2)[C@@H](O)[C@@H](CO)O[C@@H]1CC1CN(C2CCN(C(C)=O)CC2)C(=O)O1` (mixture of isomers) [Example 5.03, (RS)-3-(1-acetylpiperidin-4-yl)-5-(((2R,3R,4S,5R,6R)-5-hydroxy-6-(hydroxymethyl)-3-methoxy-4-(4-(3,4,5-trifluorophenyl)-1H-1,2,3-triazol-1-yl)tetrahydro-2H-pyran-2-yl)methyl)oxazolidin-2-one] the same measures were 120 nM and 650 nM.
The like results for `CO[C@@H]1[C@@H](n2cc(-c3ccc(Cl)c(F)c3)nn2)[C@@H](O)[C@@H](CO)O[C@@H]1Cc1cc(C2CCN(C(=O)OC(C)(C)C)CC2)on1` [Ex 1.121] were, in that order, 82 nM and 1090 nM.
For `CO[C@@H]1[C@@H](n2cc(-c3cc(F)c(F)c(F)c3)nn2)[C@@H](O)[C@@H](CO)O[C@@H]1C[C@H]1CN(C2CCN(C(=O)OC(C)(C)C)CC2)C(=O)O1` [Example 5.14, tert-butyl 4-((S)-5-(((2R,3R,4S,5R,6R)-5-hydroxy-6-(hydroxymethyl)-3-methoxy-4-(4-(3,4,5-trifluorophenyl)-1H-1,2,3-triazol-1-yl)tetrahydro-2H-pyran-2-yl)methyl)-2-oxooxazolidin-3-yl)piperidine-1-carboxylate] the same measures were 340 nM and 6410 nM.
As for `CO[C@@H]1[C@@H](n2cc(-c3cc(F)c(Cl)c(F)c3)nn2)[C@@H](O)[C@@H](CO)O[C@@H]1Cc1cc(C2CCOCC2)on1` [Ex 1.185], the IC50 at human Gal-3 (hGal-3) was 190 nM; at human Gal-1 (hGal-1), 1450 nM.
For `COCC(C)(C)c1cc(C[C@H]2O[C@H](CO)[C@H](O)[C@H](n3cc(-c4ccc(C)c(F)c4F)nn3)[C@H]2OC)on1` [Ex 1.330], the values for the IC50 on human Gal-3 (hGal-3) and at human Gal-1 (hGal-1) were 61 nM and 4360 nM, respectively.
As to `OCc1cc(C[C@H]2O[C@H](CO)[C@H](O)[C@H](n3cc(-c4cc(F)c(F)c(F)c4)nn3)[C@H]2O)no1` [Ex 1.43], the values for the IC50 at human Gal-3 (hGal-3) and on human Gal-1 (hGal-1) were 1900 nM and 15800 nM, respectively.
For `CO[C@@H]1[C@@H](n2cc(-c3ccc(Cl)c(F)c3F)nn2)[C@@H](O)[C@@H](CO)O[C@@H]1Cc1cn(C(C)(C)C)nn1` [Example 4.53, (2R,3R,4S,5R,6R)-6-((1-(tert-butyl)-1H-1,2,3-triazol-4-yl)methyl)-4-(4-(4-chloro-2,3-difluorophenyl)-1H-1,2,3-triazol-1-yl)-2-(hydroxymethyl)-5-methoxytetrahydro-2H-pyran-3-ol] the same measures were 34 nM and 750 nM.
For `CO[C@@H]1[C@@H](n2cc(-c3cc(F)c(F)c(F)c3)nn2)[C@@H](O)[C@@H](CO)O[C@@H]1Cc1cc(C(C)C)no1` [Ex 1.308] the same measures were 180 nM and 2370 nM.
